The values below come from US20230277538A1, “THERAPEUTICS FOR THE TREATMENT OF FSHD” (UCL BUSINESS LTD, priority 2020, published 2023).

Residues, ends and D or L forms follow the SMILES beside them. *: point of attachment. Cbz = O=C(OCc1ccccc1)*; CH2F = FC*

For assay [1], the system named is Cre-inducible FLExDUX4 mice. Kind of assay: In vivo GSK'872 treatment of tamoxifen-induced Cre-inducible FLExDUX4 mice. Details: species or system mouse. As to conditions: GSK'872 2 mg/kg for 5 days IP; tamoxifen 10 mg/kg for 2 days IP; mice killed at 7 weeks. As to the method:
Mice were killed at the age of 7 weeks. (A) Total body weight was measured at day 0 and 7. Y-axis represents the weight after tamoxifen at D7 relative to the weight before tamoxifen injection at DO. (BC) Weights of the tibialis anterior (TA) (B) and quadriceps (C) were measured at D7. (DE) Expression levels of 2 genes (Tm7sf4 (D) and DuxBl (E)) downstream of DUX4 were measured in the quadriceps. Y-axis represents arbitrary units relative to Psma2. • * P<0.05, **P<0.01, ***P<0.001, one-way ANOVA followed by a Tukey's multiple comparison test.
Three-week-old animals were weighted 3 times a week, after weaning. The tamoxifen (MP Biomedicals) injections were realized according to Jones et al (Jones, 2018). Six-week-old mice were injected (IP) with Tamoxifen (TMX) on two consecutive days for a final concentration of 10 mg/kg. Following TMX injection, animals were daily weighed, and sacrificed after a week. Muscles were harvested and frozen in liquid nitrogen or liquid-nitrogen-cooled isopentane for further analysis.

The next assay relates to iC2C12-DUX4 myotubes. In words: cells. The assay is classed as cell-based, mouse. As to the method:
FIG. 4: Ripk3 inhibition decreases DUX4-mediated cell death in iC2C12-DUX4 myotubes. (A) iC2C12-DUX4 viability in presence of dox 1000 ng/ml and treated with different doses of Z-VAD, Necrostatin-1 or GSK'872. (B) Cell viability in presence of dox 1000 ng/ml with the different compounds alone or in combination. Z: Z-vad (20 μM); N: necrostatin-1 (30 μM), N+: necrostatin-1 (90 μM), G: GSK'872 (2 μM); G+: GSK'872 (4 μM).
(§1) Inducible iC2C12-Dux4 (Bosnakovski, 2008) were cultured in DMEM high glucose with GlutaMAX and no Sodium Pyruvate (Gibco), 20% fetal bovine serum, and 800 μg/mL G418 (Gibco). For myoblast experiments, iC2C12-Dux4 were seeded into white 96-well plates (3000 cells per well) in growth medium. After 24 h, DUX4 expression was induced by adding doxycycline (Sigma-Aldrich) at a final concentration of 50 to 1000 ng/mL. For myotubes experiments, iC2C12-Dux4 were seeded into white 96-well plates (1500 cells per well) in growth medium. After 48 h, cells were differentiated with DMEM, 2% horse serum and 10 μg/mL insulin. DUX4 expression was induced after 4 days of differentiation to not disturb myotube formation (Bosnakovski, 2008). Inhibition of apoptosis and/or necroptosis was simultaneously realized to DUX4 induction for 24 h using 20 μM of pan-caspase inhibitor Z-VAD.fmk (Merk Chemicals), 30 μM Necrostatin-1, 3 μM GSK872, 0.2 Cyclosporin A (Cambridge Bioscience). Cell survival was determined by CellTiter-Glo luminescent cell viability assay (Promega), membrane permeability by CytoTox-Glo cytotoxicity assay (Promega) and caspase activation by Caspase-Glo 3/7 Assay (Promega) according to the manufacturer's instructions. Luminescence was read by a microplate reader Tecan.
The effects of the different inhibitors on iC2C12-DUX4 myotubes were investigated. Again, the results are expressed as the percentage of live cells in the presence of the different compounds compared to the control condition without. No effect of Z-VAD were observed arguing against a major role of caspases in DUX4-mediated toxicity (FIG. 4A). When the cells were cultivated with necrostatin-1 in the presence of dox (1000 ng/ml), necrostatin-1 concentrations […] 60 μM conferred a protection against cell death (up to 60%±6 of viable cells in presence of 60 μM necrostatin-1 compared to 39%±1 without, FIG. 4A), necrostatin-1 concentrations of 150 or 300 μM leading to up to 85%±2 viable cells (FIG. 4A). […] The different compounds were next added separately or together to iC2C12-DUX4 myotubes that were incubated with dox (1000 ng/ml). […] Indeed, at low (2 μM) or high (4 μM) concentration, GSK'872 increased cell viability by 2.1 fold (FIG. 4D). […] Ripk3 but also to a lesser extent Ripk1, participated in DUX4-mediated cell toxicity.

Another assay relates to iC2C12-DUX4 myoblasts. Kind of assay: Cell viability (ATP assay, CellTiter-Glo) of dox-induced iC2C12-DUX4 myoblasts with death inhibitors. It is filed as cell-based, mouse. As to conditions: for increase in the number of viable cells: inhibitor present; for optimal dose from dose response: with or without doxycycline 200 ng/ml, 24 hours after dox induction. As to the method:
(A) Cell viability of iC2C12-DUX4 myoblasts at 48 h of induction without or with dox (200 ng/ml) and treatment with various concentrations of the pan-caspase inhibitor Z-VAD (μM). […] Ctrl: DMSO alone.
FIG. 10: Role of necroptosis in the DUX4 mediated cell death. Several death inhibitors were added at different concentrations alone to iC2C12 myoblasts in presence or not of Doxycycline 200 ng/ml.
as §1, with “For” for “Inducible iC2C12-Dux4 (Bosnakovski, 2008) were cultured in DMEM high glucose with GlutaMAX and no Sodium Pyruvate (Gibco), 20% fetal bovine serum, and 800 μg/mL G418 (Gibco). For”, “DUX4 expression was induced after 4 days of differentiation to not disturb myotube formation (Bosnakovski, 2008).” left out
The iC2C12-DUX4 viability was assessed for 2 different doses of dox and the results are expressed as the percentage of cells alive in the presence of the different compounds compared to the condition without them. Z-VAD was always added to eliminate any bias linked to caspases 3/7 activation/synergic effect.

A further assay relates to Caspase 3/7. Kind of assay: Caspase-Glo 3/7 Assay in iC2C12-DUX4 cells. The assay is classed as cell-based, mouse. The following applies: Z-Vad 30 μM or 50 μM, different concentrations of doxycycline. The method, then: FIG. 9: Apoptosis is not involved in iC2C12-DUX4 death. (A) Cell viability on iC2C12-DUX4 myoblasts in the presence of different concentrations of DMSO induced a non-specific increase of cell survival. […] Caspase 3/7 activity was measured using the Caspase-Glo 3/7 Assay (Promega) according to the manufacturer's instructions.
as §1, with “Inhibition of apoptosis and/or necroptosis was simultaneously realized to DUX4 induction for 24 h using 20 μM of pan-caspase inhibitor Z-VAD.fmk (Merk Chemicals), 30 μM Necrostatin-1, 3 μM GSK872, 0.2 Cyclosporin A (Cambridge Bioscience).” left out

Assay [2] deals with necroptotic genes (Ripk1, Ripk3 and Mlk1) and DUX4-network genes (Tm7sf4, mDuxb1 and Wfdc3). Kind of assay: mRNA expression of necroptotic and DUX4-network genes in treated Actal Cre-FLEx DUX4 mice. It is filed as in vivo, mouse.
Experimental: Dabrafenib (30 mg/kg) was given by oral (p.o.) gavage to 4-5 week old Actal Cre-FLEx DUX4 animals 5 times/week for 4 weeks. Tamoxifen was intraperitoneally weakly injected (2 mg/kg). […] Expression of necroptotic genes (Ripk1, Ripk3 and Mlk1) and DUX4-network genes (Tm7sf4, mDuxb1 and Wfdc3) were measured.
For muscles, cryopreserved tissues were transferred in tube containing 1.4 mm ceramic beads (FastPrep, MP biomedicals, UK) plus 1 mL of Trizol (Thermo Fisher Scientific, Paisley, UK) and shaken at 10000 rpm for 40 s. Total RNAs from cells or tissue were extracted using Trizol (Thermo Fisher) according the manufacturer's protocol. The quantity of RNA was determined using a nanodrop ND-1000 spectrophotometer (Thermo Scientific, Wilmington, Del., USA). Reverse transcription was performed on 1 μg of total RNA in a 10 μL final volume (Roche Transcriptor First Strand cDNA Synthesis kit). Quantitative PCR (qPCR) was designed according to the MIQE standards. qPCRs were performed on a LightCycler 480 Real-Time PCR System (Roche) in a final volume of 9 with 0.2 μL of RT product, 0.4 μM each of forward and reverse primers (see Tables 2 and 3), and 4.5 μL of SYBRGreen Mastermix (Roche).
Dabrafenib (30 mg/kg) was administered by oral (p.o.) gavage to 4-5 week old animals 5 times/week for 4 weeks. Tamoxifen was intraperitoneally injected weakly (2 mg/kg).
Where [3] appears, read: Mus musculus, Myotube, read-out: viable cells.

As to `CC(C)S(=O)(=O)c1ccc2nccc(Nc3ccc4scnc4c3)c2c1` [GSK'872, Benzothiazol-5-yl-[6-(propane-2-sulfonyl)-quinolin-4-yl]-amine], the “DUX4-mediated cell death in vivo” value in assay [1] is “decreased DUX4-mediated cell death in vivo”. In addition, in the assay on iC2C12-DUX4 myotubes (setting [3]), the viability at 3 µM is 67% and the viability at 6 µM amounted to 77%. Further, the “increase of the number of viable cells” value in the assay on iC2C12-DUX4 myotubes (iC2C12-DUX4 myotubes, GSK'872 in combination with Z-Vad) came out at 2 fold. Besides, the “increase of cell viability” value in the assay with iC2C12-DUX4 myotubes (myotubes, dox 1000 ng/ml, GSK'872 low (2 μM) or high (4 μM) concentration) was 2.1 fold. Moreover, the “increase in the number of viable cells” value in the assay on iC2C12-DUX4 myoblasts (iC2C12 myoblasts) is recorded as 10%. In addition, the “optimal dose from dose response” value with iC2C12-DUX4 myoblasts (myoblasts) worked out at 3 µM.
Consider `COC(=O)C[C@H](NC(=O)[C@H](C)NC(=O)[C@@H](NC(=O)OCc1ccccc1)C(C)C)C(=O)CF` [Z-VAD] (Cbz-Val-Ala-Asp(OMe)-CH2F), for which, in the assay on iC2C12-DUX4 myotubes (iC2C12-DUX4 myotubes, Z-vad added in vitro), the cell survival result is reported as “did not increase cell survival”. Also, in the assay with iC2C12-DUX4 myotubes (myotubes, dox 1000 ng/ml, Z-VAD alone (20 μM)), the “increase of cell survival” value is given as 10%±10. Further, in the assay on iC2C12-DUX4 myotubes (myotubes, dox 1000 ng/ml, different doses of Z-VAD), the “effect on live cells” value is on record as “No effect”. For the same compound, in the assay on iC2C12-DUX4 myoblasts (iC2C12 myoblasts, addition of Z-Vad), the “percentage of viable cells” value is recorded as “did not modify the percentage of viable cells”. For the same compound, the “cell survival with and without Z-VAD” value in the assay on iC2C12-DUX4 myoblasts (myoblasts, 200 ng/ml dox, different doses of Z-VAD) is recorded as “No change in cell survival”. Further, the “caspase 3/7 activity after DUX4 expression” value with Caspase 3/7 was “correctly inhibited”.
In the case of `CC(C)(C)c1nc(-c2cccc(NS(=O)(=O)c3c(F)cccc3F)c2F)c(-c2ccnc(N)n2)s1` [dabrafenib, N-{3-[5-(2-aminopyrimidin-4-yl)-2-tert-butylthiazol-4-yl]-2-fluorophenyl}-2,6-difluorobenzenesulfonamide], the “mean expression of Ripk1, Ripk3, Mlk1, Tm7sf4, mDuxb1 and Wfdc3 relative to untreated control animals” value in assay [2] (dabrafenib 30 mg/kg p.o. 5 times/week for 4 weeks, 4-5 week old animals, tamoxifen 2 mg/kg) is reported as “decreased mean expression of almost all of these genes”.
Take `Nc1cccc2c(=O)[nH][nH]c(=O)c12.[Na]` [galavit, 3-aminophthalhydrazide monosodium salt]: the “mean expression of Ripk1, Ripk3, Mlk1, Tm7sf4, mDuxb1 and Wfdc3 relative to untreated control animals” value in assay [2] (galavit 4.5 mg/kg IP daily for 3 days, 7-8 week old males, tamoxifen 10 mg/kg day 0 and 1) is given as “decreased mean expression of almost all of these genes”.
On to `CN1C(=O)C(Cc2c[nH]c3ccccc23)NC1=S` (stereo not shown) [necrostatin-1, 5-(1H-indol-3-ylmethyl)-3-methyl-2-sulfanylideneimidazolidin-4-one], for which, in the assay with iC2C12-DUX4 myotubes (setting [3]), the viability at 60 µM came to 60%. Also, the “increase in the number of viable cells” value in the assay with iC2C12-DUX4 myoblasts (iC2C12 myoblasts) amounted to 20%. Moreover, the “increase of cells survival” value in the assay with iC2C12-DUX4 myoblasts (myoblasts, 200 ng/ml dox, necrostatin-1 present, Z-VAD always added) is recorded as 34%±20. Moreover, the “optimal dose from dose response” value in the assay on iC2C12-DUX4 myoblasts (myoblasts) was determined as 30 µM.
